Results as given in ChEMBL document CHEMBL3576762, “Ribifolin, an orbitide from Jatropha ribifolia, and its potential antimalarial activity” (J Nat Prod, 2015).
Where a SMILES comes first, the peptide text is derived from it.

Key:
Plasmodium falciparum = test: Antimalarial activity against chloroquine-sensitive Plasmodium falciparum 3D7 infected in erythrocytes by Giemsa-stained blood smears under microscopy; type: functional, organism-based
HEK-293T = test: Cytotoxicity against human HEK293T cells at 0.001 to 100 uM after 48 hrs by MTT assay; type: cell-based

| Compound | IC50 (Plasmodium falciparum) | Activity (HEK-293T) |
| --- | --- | --- |
| CC[C@H](C)[C@@H]1NC(=O)[C@H]([C@@H](C)O)NC(=O)CNC(=O)[C@H](Cc2ccccc2)NC(=O)[C@H](C(C)C)NC(=O)CNC(=O)[C@H](CC(C)C)NC1=O (cyclo(FGTILGV)) | 16 µM | – |
| CC[C@H](C)[C@@H]1NC(=O)CNC(=O)[C@H](CC(C)C)NC(=O)[C@H]([C@@H](C)CC)NC(=O)[C@H]([C@@H](C)CC)NC(=O)[C@H](CO)NC(=O)CNC(=O)[C@H](CC(C)C)NC1=O (cyclo(GILGSIIL)) | 42 µM | Non-toxic |
| CC[C@H](C)[C@@H]1NC(=O)CNC(=O)[C@H](CC(C)C)NC(=O)[C@H](CC(C)C)NC(=O)[C@H]([C@@H](C)CC)NC(=O)[C@@H]2CCCN2C(=O)[C@H](CO)NC(=O)CNC(=O)[C@H](CC(C)C)NC1=O (cyclo(GILGSPILL)) | 10000 µM | – |
| H-ILGSIILG-OH | 519 µM | Non-toxic |

The remaining compounds from weak to strong by IC50 (Plasmodium falciparum), led by results:

| IC50 (Plasmodium falciparum) | Compound | Activity (HEK-293T) |
| --- | --- | --- |
| 9 µM | CC[C@H](C)[C@@H]1NC(=O)[C@H](C)NC(=O)[C@H](CC(C)C)NC(=O)[C@H]([C@@H](C)CC)NC(=O)[C@@H]2CCCN2C(=O)[C@H]([C@@H](C)CC)NC(=O)CNC(=O)[C@H](CCSC)NC1=O (cyclo(AIMGIPIL)) | – |
| 2 µM | C[C@@H](O)[C@@H]1NC(=O)CNC(=O)[C@H](Cc2ccccc2)NC(=O)[C@H](Cc2ccccc2)NC(=O)CNC(=O)[C@H](Cc2ccccc2)NC(=O)[C@H](Cc2ccccc2)NC1=O (cyclo(FFGFFGT)) | – |
